Our source for the inhibition values is patent publication US11339161B2, “Triazolo pyridines as modulators of gamma-secretase” (Boehringer Ingelheim International GmbH, priority 2017, dated 2022).

Each structure is given as a SMILES string. Like-named read-outs stand apart in the source and are kept apart here.

The target of one experiment is PDGFRA (PDGFR alpha) (Homo sapiens, UniProt P16234). The experiment can be described thus: Z'-LYTE SelectScreen biochemical kinase assay PDGFRA (PDGFR alpha). The procedure, abridged: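 Z′-LYTE FRET-peptide cleavage assay: 1.54-22.6 ng PDGFRA with 2 μM Tyr 04 in HEPES pH 7.5 buffer with MgCl2/MnCl2, ATP at apparent Km, 1% DMSO, 60 min at room temperature. Coumarin/fluorescein emission ratio after development; 10-point 3-fold titrations fitted sigmoidally.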
PDGFRA (PDGFR alpha), sequence (P16234 24-1089): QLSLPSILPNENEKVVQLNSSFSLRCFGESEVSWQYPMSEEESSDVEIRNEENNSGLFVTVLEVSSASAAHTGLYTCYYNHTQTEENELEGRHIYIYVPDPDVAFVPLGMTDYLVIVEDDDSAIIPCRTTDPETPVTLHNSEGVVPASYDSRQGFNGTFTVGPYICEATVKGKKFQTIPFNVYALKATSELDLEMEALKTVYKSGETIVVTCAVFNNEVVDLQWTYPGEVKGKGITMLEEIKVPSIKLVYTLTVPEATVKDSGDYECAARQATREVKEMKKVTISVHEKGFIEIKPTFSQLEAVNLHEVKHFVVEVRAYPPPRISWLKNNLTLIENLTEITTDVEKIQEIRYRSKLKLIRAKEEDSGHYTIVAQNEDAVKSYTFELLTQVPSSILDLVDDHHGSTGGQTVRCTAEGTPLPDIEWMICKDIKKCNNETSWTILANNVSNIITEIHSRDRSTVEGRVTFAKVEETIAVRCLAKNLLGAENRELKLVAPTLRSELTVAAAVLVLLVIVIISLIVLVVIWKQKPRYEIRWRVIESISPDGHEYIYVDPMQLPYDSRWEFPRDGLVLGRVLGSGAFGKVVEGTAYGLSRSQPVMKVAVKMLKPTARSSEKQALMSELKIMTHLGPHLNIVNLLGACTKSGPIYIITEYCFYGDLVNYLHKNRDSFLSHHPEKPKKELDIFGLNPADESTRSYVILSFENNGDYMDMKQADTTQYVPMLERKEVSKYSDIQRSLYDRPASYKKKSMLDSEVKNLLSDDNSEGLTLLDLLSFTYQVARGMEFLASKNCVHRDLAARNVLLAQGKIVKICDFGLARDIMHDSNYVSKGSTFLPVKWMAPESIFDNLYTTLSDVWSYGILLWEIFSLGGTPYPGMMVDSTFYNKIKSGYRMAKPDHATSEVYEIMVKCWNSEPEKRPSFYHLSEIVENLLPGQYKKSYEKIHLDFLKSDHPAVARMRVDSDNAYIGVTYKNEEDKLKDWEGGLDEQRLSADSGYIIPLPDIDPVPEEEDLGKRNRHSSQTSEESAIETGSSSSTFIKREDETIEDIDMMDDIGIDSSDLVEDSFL

A further experiment deals with RET (Homo sapiens, UniProt P07949). The experiment can be described thus: Z'-LYTE SelectScreen biochemical kinase assay RET. Put shortly: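 10 μL reactions with 0.49-3.64 ng RET and 2 μM Tyr 02 peptide in 50 mM HEPES pH 7.5, 10 mM MgCl2, 1 mM EGTA, 0.01% BRIJ-35, 1% DMSO, ATP at apparent Km, 60 min at room temperature. Protease development 60 min, coumarin/fluorescein emission ratio read. IC50 from sigmoidal fit of 10-point 3-fold titrations.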
RET, sequence (P07949 29-1114): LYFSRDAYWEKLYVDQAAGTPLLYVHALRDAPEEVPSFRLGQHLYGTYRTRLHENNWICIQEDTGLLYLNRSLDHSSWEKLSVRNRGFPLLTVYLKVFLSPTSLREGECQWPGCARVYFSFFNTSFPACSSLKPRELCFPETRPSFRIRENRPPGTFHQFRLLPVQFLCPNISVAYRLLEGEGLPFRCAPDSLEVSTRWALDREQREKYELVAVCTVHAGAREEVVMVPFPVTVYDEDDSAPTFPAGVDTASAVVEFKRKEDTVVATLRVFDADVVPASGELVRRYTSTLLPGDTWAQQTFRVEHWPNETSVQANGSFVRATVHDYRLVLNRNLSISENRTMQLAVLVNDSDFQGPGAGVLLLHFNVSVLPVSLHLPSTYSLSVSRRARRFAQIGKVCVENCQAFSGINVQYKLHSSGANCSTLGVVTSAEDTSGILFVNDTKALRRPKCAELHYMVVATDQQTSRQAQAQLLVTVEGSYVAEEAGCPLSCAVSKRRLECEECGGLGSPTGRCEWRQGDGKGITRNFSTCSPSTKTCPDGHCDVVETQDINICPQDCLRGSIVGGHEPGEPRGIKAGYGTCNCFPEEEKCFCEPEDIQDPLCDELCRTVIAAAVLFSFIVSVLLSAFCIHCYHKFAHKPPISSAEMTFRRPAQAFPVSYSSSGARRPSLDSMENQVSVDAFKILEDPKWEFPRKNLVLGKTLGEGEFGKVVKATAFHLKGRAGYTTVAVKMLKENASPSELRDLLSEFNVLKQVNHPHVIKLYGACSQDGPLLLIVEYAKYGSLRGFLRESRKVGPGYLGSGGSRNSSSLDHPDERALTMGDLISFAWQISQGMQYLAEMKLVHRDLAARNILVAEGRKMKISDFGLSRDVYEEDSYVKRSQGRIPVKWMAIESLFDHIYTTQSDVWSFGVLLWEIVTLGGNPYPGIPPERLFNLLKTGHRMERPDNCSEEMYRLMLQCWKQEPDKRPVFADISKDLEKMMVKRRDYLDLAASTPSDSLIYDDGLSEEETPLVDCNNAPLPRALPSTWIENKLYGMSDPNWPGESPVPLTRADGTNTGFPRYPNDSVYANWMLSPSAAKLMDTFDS

The target of a further experiment is PTK2 (FAK) (Homo sapiens, UniProt Q05397). The experiment can be described thus: Z'-LYTE SelectScreen biochemical kinase assay PTK2 (FAK). Put shortly: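 Z′-LYTE FRET assay: 12.5-100 ng PTK2 (FAK) with 2 μM Tyr 07 peptide, ATP at apparent Km, in 50 mM HEPES pH 7.5, 10 mM MgCl2, 1 mM EGTA, 0.01% BRIJ-35, 1% DMSO, 60 min at room temperature. Protease development 60 min; coumarin/fluorescein emission ratio read; 10-point 3-fold titrations fit to sigmoidal dose-response.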
PTK2 (FAK), sequence (Q05397 whole entry): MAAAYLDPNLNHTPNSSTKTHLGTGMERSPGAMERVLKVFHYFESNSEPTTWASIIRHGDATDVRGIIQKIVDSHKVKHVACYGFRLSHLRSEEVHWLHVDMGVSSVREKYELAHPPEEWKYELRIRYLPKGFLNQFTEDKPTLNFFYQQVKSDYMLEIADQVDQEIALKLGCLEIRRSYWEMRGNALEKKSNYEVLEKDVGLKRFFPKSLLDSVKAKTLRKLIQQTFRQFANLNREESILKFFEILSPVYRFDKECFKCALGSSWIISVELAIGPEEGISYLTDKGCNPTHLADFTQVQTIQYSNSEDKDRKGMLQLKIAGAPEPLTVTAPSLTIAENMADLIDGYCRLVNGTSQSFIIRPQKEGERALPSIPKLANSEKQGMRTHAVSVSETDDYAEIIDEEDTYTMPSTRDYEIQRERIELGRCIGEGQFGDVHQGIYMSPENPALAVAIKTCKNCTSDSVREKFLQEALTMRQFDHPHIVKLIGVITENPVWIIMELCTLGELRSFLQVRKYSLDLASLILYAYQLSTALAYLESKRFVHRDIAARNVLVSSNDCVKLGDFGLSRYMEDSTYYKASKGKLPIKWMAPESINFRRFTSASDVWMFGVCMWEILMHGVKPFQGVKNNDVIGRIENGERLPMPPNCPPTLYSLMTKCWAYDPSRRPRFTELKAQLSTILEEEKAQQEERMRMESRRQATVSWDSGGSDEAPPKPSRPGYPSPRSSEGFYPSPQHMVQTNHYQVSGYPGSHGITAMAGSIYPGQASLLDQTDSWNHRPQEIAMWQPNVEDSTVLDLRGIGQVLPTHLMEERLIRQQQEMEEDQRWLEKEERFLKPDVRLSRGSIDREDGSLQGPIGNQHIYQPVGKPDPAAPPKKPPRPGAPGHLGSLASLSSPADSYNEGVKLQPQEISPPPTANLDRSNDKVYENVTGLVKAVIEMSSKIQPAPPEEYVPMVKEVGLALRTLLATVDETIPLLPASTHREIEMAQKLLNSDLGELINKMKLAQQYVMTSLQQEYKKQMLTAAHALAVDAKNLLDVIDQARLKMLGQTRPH

Another experiment has as its target RPS6KB1 (p70S6K) (Homo sapiens, UniProt P23443). The experiment can be described thus: Z'-LYTE SelectScreen biochemical kinase assay RPS6KB1 (p70S6K). The procedure, abridged:
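Z′-LYTE FRET-peptide assay: 2.87-17.7 ng kinase with 2 μM Ser/Thr 07 in 50 mM HEPES pH 7.5, 10 mM MgCl2, 1 mM EGTA, 0.01% BRIJ-35, 1% DMSO; ATP at apparent Km; 60 min kinase and 60 min development at room temperature. Emission ratio 445/520 nm; 10-point 3-fold titration fitted to sigmoidal dose-response.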

The mark [1] stands for this setting: 10 μmolar compound concentration, ATP at Km app, read-out: PDGFRA (PDGFR alpha) inhibition.
Where [2] appears, read: read-out: % Inhibition mean PDGFRA (PDGFR alpha).
Setting [3] is: 10 μmolar compound concentration, ATP at Km app, read-out: RET inhibition.
[4] abbreviates: read-out: % Inhibition mean RET.
Setting [5] is: 10 μmolar compound concentration, ATP at Km app, read-out: PTK2 (FAK) inhibition.
[6] abbreviates: read-out: % Inhibition mean PTK2 (FAK).
Where [7] appears, read: 10 μmolar compound concentration, ATP at Km app, read-out: RPS6KB1 (p70S6K) inhibition.
[8] abbreviates: read-out: % Inhibition mean RPS6KB1 (p70S6K).

RPS6KB1 (p70S6K), sequence (P23443 whole entry): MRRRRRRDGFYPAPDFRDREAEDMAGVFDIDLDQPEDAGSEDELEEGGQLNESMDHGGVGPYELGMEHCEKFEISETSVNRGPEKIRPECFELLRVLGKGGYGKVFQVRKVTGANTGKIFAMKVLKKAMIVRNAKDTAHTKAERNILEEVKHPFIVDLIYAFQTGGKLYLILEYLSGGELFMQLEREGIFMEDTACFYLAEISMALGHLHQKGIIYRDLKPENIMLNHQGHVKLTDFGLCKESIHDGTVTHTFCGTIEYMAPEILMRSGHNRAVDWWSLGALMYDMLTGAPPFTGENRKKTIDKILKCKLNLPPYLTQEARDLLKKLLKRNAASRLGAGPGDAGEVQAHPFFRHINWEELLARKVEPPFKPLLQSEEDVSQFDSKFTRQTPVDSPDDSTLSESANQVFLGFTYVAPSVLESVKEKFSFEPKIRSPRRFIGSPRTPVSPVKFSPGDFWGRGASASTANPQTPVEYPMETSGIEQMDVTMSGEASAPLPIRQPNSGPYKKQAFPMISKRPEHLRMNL

On to `CCn1ncc2c1CCC(Nc1nc3c(-c4ccc(F)cc4)cccn3n1)C2` (stereo not drawn) [Example 55, (1-Ethyl-4,5,6,7-tetrahydro-1H-indazol-5-yl)-[8-(4-fluoro-phenyl)-[1,2,4]triazolo[1,5-a]pyridine-2-yl]-amine], for which the inhibition at 10 µM on PDGFRA (PDGFR alpha) (setting [1]) was less than 40%; at PDGFRA (PDGFR alpha) (setting [2]), 16%; at RET (setting [3]), less than 40%; at RET (setting [4]), 21%; at PTK2 (FAK) (setting [5]), less than 40%; on PTK2 (FAK) (setting [6]), 8%. Besides, the inhibition at 10 µM was less than 40% at RPS6KB1 (p70S6K) (setting [7]) and 11% on RPS6KB1 (p70S6K) (setting [8]).
Turning to `CCn1ncc2c1CCC(Nc1nc3c(-c4ccc(OC)nc4)cccn3n1)C2` (stereo not drawn) [Example 71, (1-Ethyl-4,5,6,7-tetrahydro-1H-indazol-5-yl)-[8-(6-methoxy-pyridin-3-yl)-[1,2,4]triazolo[1,5-a]pyridine-2-yl]-amine], the inhibition at 10 µM at PDGFRA (PDGFR alpha) (setting [1]) is less than 40%; at PDGFRA (PDGFR alpha) (setting [2]), 21%; on RET (setting [3]), less than 40%; at RET (setting [4]) it was 30%; on PTK2 (FAK) (setting [5]), less than 40%; on PTK2 (FAK) (setting [6]), 30%. The inhibition at 10 µM was less than 40% at RPS6KB1 (p70S6K) (setting [7]) and 23% at RPS6KB1 (p70S6K) (setting [8]).
With `CCn1ncc2c1CC[C@@H](Nc1nc3c(-c4ccc(F)c(Cl)c4)cccn3n1)C2` [Example R-61, (R)-[8-(3-Chloro-4-fluoro-phenyl)-[1,2,4]triazolo[1,5-a]pyridine-2-yl]-(1-ethyl-4,5,6,7-tetrahydro-1H-indazol-5-yl)-amine], the inhibition at 10 µM at PDGFRA (PDGFR alpha) (setting [1]) is less than 40%; on PDGFRA (PDGFR alpha) (setting [2]) it was 18%; on RET (setting [3]), less than 40%; on RET (setting [4]) it was 20%; at PTK2 (FAK) (setting [5]), less than 40%; at PTK2 (FAK) (setting [6]), 16%. Further, the values for the inhibition at 10 µM at RPS6KB1 (p70S6K) (setting [7]) and on RPS6KB1 (p70S6K) (setting [8]) were less than 40% and 3%, respectively.
